Values after ≈ are worked out from the molar mass of the structure shown.
Legend:
metalloprotease [1] = assay: Metalloproteinase activity, azocasein (in vitro); assay type: biochemical, Rhynchophorus ferrugineus; details: fourth instar larvae midgut homogenate
Experimental: (§1) A substrate azocasein assessed the metalloproteinases activity in the fourth midgut instar larval homogenate. Ten larvae were carefully removed, dissected, and rinsed repeatedly with NaCl solution (0.9% (w/v). […] After homogenization, the homogenates were centrifuged at 5000 rpm (for 30 min) using a Sigma centrifuge 3k30, and the supernatant was utilized to determine enzyme activity and protein content. The supernatant per experiment (10 µL) was incubated for 20 min at 37 °C, and the volume was adjusted to 60 µL using assay buffer pH 8 before adding azocasein (200 µL, 2% (w/v)). In all instances, 10 µL enzyme samples were incubated for 10 min (except EDTA with 20 min), and EDTA was used as a blocker of metalloproteinase activity before being added to the specific substrate. The reaction was interrupted with 300 µL of trichloroacetic acid (TCA cold, 10% (v/v) and continued at 37 °C for 180 min. The reaction mixture was then centrifuged at 5000 rpm for 20 min (Sigma centrifuge 3k30), sodium hydroxide (10 µL of 10 N) was incorporated into the supernatant, then absorbance was determined using an ELISA plate reader at 450 nm. As a blank, an assay mixture devoid of the enzyme was devoted, the specific activity was determined using the OD450 mg^−1 protein min^−1 value, and a blank solution sample devoid of enzyme solution was determined. To learn more about the proteases found in homogenate preparations of R. ferrugineus fourth midgut larval instars, inhibitors from many different types of mechanisms were used. […] As a control, an assay combination devoid of inhibitors was utilized. The absorbance of the enzymes was determined using an ELISA plate quick reader at various wavelengths. The percentage activity of the control enzyme for each inhibitor was evaluated for each enzyme. […] Larvae were exposed for 24 h to leaf discs treated with extract and compounds.

metalloprotease [2] = assay: Metalloprotease activity of midgut from larvae treated 24 h (in vivo); set-up: species or system Rhynchophorus ferrugineus; details: midgut of fourth instar larvae treated for 24 h
Experimental: as §1

[3] = molecular target: trypsin-like serine proteinase; assay: Serine proteinase microplate assay, BApNA (in vitro); assay type: biochemical, Rhynchophorus ferrugineus; details: fourth instar larvae midgut homogenate
Experimental: The specific activities of serine proteinase were determined using a rapid quick microplate assay with substrates in reaction mixtures (150 μL) including a serine protease assay buffer, according to […] et al. and Olga et al. with modifications. The midguts were homogenized in the assay buffer (100 mM Tris-HCl, pH 8.1) and centrifuged for 30 min at 8000 rpm (Sigma 3K 30, rotors No. 12158). […] […] (100 mg/mL in DMF), BAρNA (100 mg/mL in DMSO), and […] (100 mg/mL in DMF) stock substrates were diluted in the assay buffer to 1 mg/mL, and substrate volume was 50 μL. […] The activity was quantified using an ELISA plate reader at a wavelength of 405 nm. As an empty well, an assay combination containing a denaturation enzyme was utilized instead of an active enzyme. […] To learn more about the proteases found in homogenate preparations of R. ferrugineus fourth midgut larval instars, inhibitors from many different types of mechanisms were used. […] As a control, an assay combination devoid of inhibitors was utilized. The absorbance of the enzymes was determined using an ELISA plate quick reader at various wavelengths. The percentage activity of the control enzyme for each inhibitor was evaluated for each enzyme. […] Larvae were exposed for 24 h to leaf discs treated with extract and compounds.

R. ferrugineus adults = assay: whole plant or invertebrate; details: Rhynchophorus ferrugineus
Experimental: The R. ferrugineus adult and larvae were acquired from an insect breeding lab at King Faisal University’s Date Palm Research Center of Excellence and grown utilizing sugarcane stem long pieces. The extracts activity against larvae was determined by using topical application method with storing larvae at 4–5 °C for 5 min. Previous serial concentrations of extract (10 µL) were applied to the dorsum of each larvae using a hand-operated micro-applicator (Burkard Manufacturing Co., Ltd., Hertfordshire, UK with a 50-ll micro-syringe (MS-N50; Ito Corp., Shizuoka, Japan). Each larva was feeding on 10 cm stem pieces of long sugarcane, with 5 larvae/box with three replicates. After topical administration, larval mortality was determined after 24, 48, 72, and 96 h to determine the LD50. Adults were tested for antifeedant effect determined using ten-centimeter-long sections of sugarcane stem divided into equal longitudinal halves. Pieces of long sections of sugarcane stem with area ~32.2 cm^2 were dipped for ten seconds in the previous serial concentration of extract (10 mL) and, then, dried in room temperature air. […] Each package received a replacement pair (male and female). Each treatment was replicated ten times. After 24, 48, 72, and 96 h, feeding observations were assayed.
Finney states that the statistical analysis and probit analysis were conducted using the SPSS 25.0 program (Statistical Package for Social Sciences, Armonk, NY, USA). Chemical components were determined by PCA using SPSS 25.0 program and presented using XLSTAT 2018.1. PCA is a clustering technique that is used to determine the relationships between samples. […] We did a mortality against dosage regression and converted the resultant median dose to an LC50 value (µg/mL). The range of LC50 was calculated with a 95 percent confidence interval using least-squares. We conducted a one-way analysis of variance on the enzyme activity data (ANOVA). The Student–Newman–Keuls (SNK) test was applied with separate means, and differences at p ≤ 0.05 were considered significant.

total proteases = assay: Total protease activity of midgut from larvae treated 24 h (in vivo); set-up: species or system Rhynchophorus ferrugineus; details: midgut of fourth instar larvae treated for 24 h
Experimental: The Lowry technique was used to determine the protein concentrations. Total proteolytic activity was determined in the fourth midgut instar larval (lab strain) homogenate of R. ferrugineus with azocasein in accordance with […] et al. […] [70]. […] Using a Sigma 3k30 cooling centrifuge, reserve homogenates prepared in a previous stage were spun at 5000 rpm for 30 min. Estimates of protein content and total proteolytic enzyme activity were made using the supernatants. The supernatant (10 μL) was incubated at 37 °C for 20 min, and the volume was adjusted to 60 μL using an assay buffer (pH 8), before adding azocasien (200 μL, 2% (w/v)). […] Following that, to activate the reaction, the substrate was introduced 20 min for Leupeptin, so the reaction was halted after 180 min at 37 °C with 300 μL of cool tri-chloroacetic acid (TCA) (10% (v/v). The mixture was centrifuged for 20 min at 5000 rpm (Sigma 3k30 cooling centrifuge). […] To learn more about the proteases found in homogenate preparations of R. ferrugineus fourth midgut larval instars, inhibitors from many different types of mechanisms were used. […] As a control, an assay combination devoid of inhibitors was utilized. The absorbance of the enzymes was determined using an ELISA plate quick reader at various wavelengths. The percentage activity of the control enzyme for each inhibitor was evaluated for each enzyme. […] Larvae were exposed for 24 h to leaf discs treated with extract and compounds.

## C[C@@H]1O[C@@H](OC[C@H]2O[C@@H](Oc3c(-c4ccc(O)c(O)c4)oc4cc(O)cc(O)c4c3=O)[C@H](O)[C@@H](O)[C@@H]2O)[C@H](O)[C@H](O)[C@H]1O [Quercetin-3-O-rutinoside]
Metalloprotease [1]
  IC50 against metalloprotease (in vitro): 37.3 µg/mL
Metalloprotease [2]
  IC50 against metalloprotease (in vivo): 612.4 µg/mL
[3]
  IC50 against trypsin-like serine proteinase (in vitro): 104.5 µg/mL
R. ferrugineus adults
  LC50: 1210 µg/mL (≈ 1.99 mM)
Total proteases
  IC50 against total proteases (in vivo): 286.4 µg/mL

## O=C(O)C[C@H](C(=O)O)[C@@H](O)C(=O)O [Isocitric acid]
Metalloprotease [1]
  IC50 against metalloprotease (in vitro): 127.8 µg/mL
Metalloprotease [2]
  IC50 against metalloprotease (in vivo): 169.2 µg/mL
R. ferrugineus adults
  LC50: 1830 µg/mL (≈ 9.5 mM)
Total proteases
  IC50 against total proteases (in vivo): 486.3 µg/mL

## dicaffeoyl-tartaric acid [Chicoric acid]
Metalloprotease [1]
  IC50 against metalloprotease (in vitro): 44.6 µg/mL
Metalloprotease [2]
  IC50 against metalloprotease (in vivo): 74.2 µg/mL
[3]
  IC50 against trypsin-like serine proteinase (in vitro): 51.6 µg/mL
Total proteases
  IC50 against total proteases (in vivo): 146.2 µg/mL

## O=C(/C=C/c1ccc(O)c(O)c1)O/C=C\c1ccc(O)c(O)c1 [Nepetoidin B]
Metalloprotease [1]
  IC50 against metalloprotease (in vitro): 51.1 µg/mL
Metalloprotease [2]
  IC50 against metalloprotease (in vivo): 95.8 µg/mL
[3]
  IC50 against trypsin-like serine proteinase (in vitro): 86.7 µg/mL
R. ferrugineus adults
  LC50: 1320 µg/mL (≈ 4.19 mM)
Total proteases
  IC50 against total proteases (in vivo): 179.4 µg/mL

## O=C(/C=C/c1ccc(O)c(O)c1)O[C@H](Cc1ccc(O)c(O)c1)C(=O)O [Rosmarinic acid]
Metalloprotease [1]
  IC50 against metalloprotease (in vitro): 48.4 µg/mL
Metalloprotease [2]
  IC50 against metalloprotease (in vivo): 86.7 µg/mL
[3]
  IC50 against trypsin-like serine proteinase (in vitro): 91.3 µg/mL
R. ferrugineus adults
  LC50: 1500 µg/mL (≈ 4.15 mM)
Total proteases
  IC50 against total proteases (in vivo): 186.2 µg/mL

## COc1ccc(-c2cc(=O)c3c(O)c(OC)c(OC)cc3o2)cc1 [Salvigenin, 5-Hydroxy-6,7,4′-trimethoxyflavone]
Metalloprotease [1]
  IC50 against metalloprotease (in vitro): 49.1 µg/mL
Metalloprotease [2]
  IC50 against metalloprotease (in vivo): 113.7 µg/mL
[3]
  IC50 against trypsin-like serine proteinase (in vitro): 59.2 µg/mL
R. ferrugineus adults
  LC50: 1190 µg/mL (≈ 3.62 mM)
Total proteases
  IC50 against total proteases (in vivo): 164.8 µg/mL
